Source: patent publication US5763404A, “Methods for using LHRH antagonists with low histamine release” (priority 1995, dated 1998)
Where two headings read alike, the source gives them in different places. Values belong to the compound of their own block, whether it stands above or below them. Starred links: 1 amine or outer side, 2 acyl side, 3 side chain; linkers in the order of their positions; H or OH if unused. Non-standard residues stand in square brackets, D forms with d. Residues, ends and D or L forms follow the SMILES beside them. No end group written: not given here. *: point of attachment. dAla(cis-4-NHCOPyz-cHex) = N[C@H](C[C@H]1CC[C@@H](NC(=O)c2cnccn2)CC1)C(=O)O; X2 = O=C(N[C@H]1CC[C@@H](C[C@H](N[*:1])C(=O)[*:2])CC1)c1cnccn1; dPhe(4-Cl) = N[C@H](Cc1ccc(Cl)cc1)C(=O)O; X10 = O=C([C@@H](Cc1cnccn1)N[*:1])[*:2]; d2Nal = N[C@H](Cc1ccc2ccccc2c1)C(=O)O; Lys(iPr) = CC(C)NCCCC[C@H](N)C(=O)O; d3Pal = N[C@H](Cc1cccnc1)C(=O)O; Cit = NC(=O)NCCC[C@H](N)C(=O)O; Picolinoyl = O=C(c1ccccn1)*; Abu = CC[C@H](N)C(=O)O

Assays:
[1] = test system: anaesthesized rats; test: wheal test, intradermal injection; type: in vivo, rat; details: 10 ug peptide intradermally
In short: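 Anaesthetized rats given intradermal injection of 10 ug peptide in 100 ul saline; area of the wheal calculated from its diameter.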

[2] = test system: rat mast cells; test: in vitro histamine release test; type: cell-based; details: for In Vitro Histamine Release ED50: rat mast cells, ± SEM
Experimental: The antiovulatory activity, AOA, in rats was determined as described by Humphries et al. (12). Antiovulation assays were performed by counting, on estrus, the number of ova shed by 4-day cycling rats after a single sc injection of the LH-RH analogue in corn oil was administered between 12 and 12:30 p.m. on […]. The control rats received 0.3 mL of the vehicle. The wheal test was performed by intradermally injecting 10 ug of peptide in 100 ul of saline into anaesthesized rats, measuring the ideally circular wheal response and calculating the area. The in vitro histamine release test was done as described by Karten et al. (4). A suspension of rat mast cells was added to increasing concentrations of peptide and the mixture was incubated for a few minutes followed by centrifugation to collect the histamine in the supernatant. A PIPES (piperazine-N,N'-bis[2-ethanesulfonic acid]) medium buffered at pH 7.4 containing NaCl 119 mM, KCl 5 mM, PIPES 25 mM, NaOH 40 mM, glucose 5.6 mM, CaCl2 1 mM, and 0.1% bovine serum albumin was used. This was designated as PIPES AC. Peptides were dissolved in double distilled H2 O at a concentration of 2 mg/ml and stored at -20° C. They were thawed just prior to testing, diluted in PIPES AC and prewarmed for five minutes at 37° C. Peptides studied were stable to heating at 56° C. for two hours, and to freezing and thawing.
Peritoneal cells were collected from male Sprague-Dawley rats weighing 200 to 250 gm and purchased from Harlan (Madison, Wis.). After euthanasia by CO2, the peritoneal cavity was washed with 50 ml PIPES AC medium containing 20 units of heparin. Following centrifugation at 200×g for eight minutes at 4° C., cells were washed again and finally resuspended to a concentration of 8 to 24×10^5 total leukocytes/ml in PIPES AC. This suspension contained approximately 5-10% mast cells. Washed cells were used immediately after collection and were prewarmed for five minutes at 37° C. prior to pipetting 0.25 ml aliquots into 12×75 mm polystyrene tubes containing 0.25 ml of diluted peptide. Mixtures were incubated for 15 minutes at 37° C. and the reaction stopped by centrifugation at 400×g for 15 minutes at 4° C. The cell supernatants were assayed for histamine content by the automated fluorometric assay procedure. See, Siraganian, R. P., "An automated continuous flow system for the extraction and fluorometric analysis of histamine." Anal. Biochem. 57:383 (1974); and Siraganian, R. P. and Hook, W. A., "Histamine release and assay methods for the study of human allergy," In Manual of Clinical Immunology, 3rd ed., N. R. Rose, H. Friedman, and J. L. Fahey (Eds.), Amer. Soc. for Microbiology, Washington (1986) p. 808.

[3] = test system: 26 days old female rats; test: oral activity: serum LH and FSH after agonist [D-Qal^6]-LHRH; type: in vivo, rat; details: for LH: 2 hours before 10 ng agonist; for FSH / Serum LH: -2 hr, agonist 10 ng sc, +2 hours
Experimental: For the determination of duration of action, the antagonist was administered s.c. or orally to 26 days old female rats at a specific time before administration of the agonist, [D-Qal^6 ]-LHRH. The serum levels of rat luteinizing hormone (LH) and rat follicle stimulating hormone (FSH) were then measured 2 hours after the agonist administration by RIA. The oral administration was done through force-feeding with feeding tubes.

[4] = test system: rats; details: reported in ref. 16, cited from earlier work
[5] = test system: dispersed pituitary cell culture; test: dispersed pituitary cell culture assay; type: cell-based

Compound: CC(=O)N[C@H](Cc1ccc2ccccc2c1)C(=O)N[C@H](Cc1ccc(Cl)cc1)C(=O)N[C@H](Cc1cccnc1)C(=O)N[C@@H](CO)C(=O)N[C@@H](C[C@H]1CC[C@@H](NC(=O)c2cnccn2)CC1)C(=O)N[C@H](Cc1cnccn1)C(=O)N[C@@H](CC(C)C)C(=O)N[C@@H](CCCNC(=N)N)C(=O)N1CCC[C@H]1C(=O)N[C@H](C)C(N)=O [compound 26417] (Ac-[d2Nal][dPhe(4-Cl)][d3Pal]S[X2][X10]LRP[dA]-NH2)
Wheal Area [1]: 133.2 ± 11.8 mm^2 /10 μg

Compound: CC(=O)N[C@H](Cc1ccc2ccccc2c1)C(=O)N[C@H](Cc1ccc(Cl)cc1)C(=O)N[C@H](Cc1cccnc1)C(=O)N[C@@H](CO)C(=O)N[C@@H](Cc1ccc(O)cc1)C(=O)N[C@H](C[C@H]1CC[C@@H](NC(=O)c2cnccn2)CC1)C(=O)N[C@@H](CC(C)C)C(=O)N[C@@H](CCCCNC(C)C)C(=O)N1CCC[C@H]1C(=O)N[C@H](C)C(N)=O [compound 26418] (Ac-[d2Nal][dPhe(4-Cl)][d3Pal]SY[dAla(cis-4-NHCOPyz-cHex)]L[Lys(iPr)]P[dA]-NH2)
Wheal Area [1]: 95.0 ± 0 mm^2 /10 μg

Compound: [N-Ac-D-2-Nal^1,D-4-F-Phe^2,D-Trp^3,D-Arg^6 ]-LHRH
In Vitro Histamine Release ED50 [2]: 0.17 mg/L
In Vitro Histamine Release ED50 ([2]; listed as [N-Ac-D-2-Nal^1,D-pFPhe^2,D-Trp^3,D-Arg^6 ]-LHRH): about 0.17 μg/ml
In Vitro Histamine Release ED50 ([2]; listed as standard compound): 0.1 to 0.2 mg/L
ED 50 (histamine release), starred test series ([2]; test series in which the standard compound had ED 50 0.46 instead of the usual 0.1-0.2): 0.46 mg/L

Compound: [N-Ac-D-pClPhe^1,2,D-Trp^3,D-Arg^6,D-Ala^10 ]-LHRH [VIII-25]
LH ([3]; oral 30 ug): 39 ± 6 ng/mL
LH ([3]; oral 100 ug): 26 ± 7 ng/mL
FSH ([3]; oral in water 10 μg): 1794 ± 329 ng/mL
Serum LH ([3]; oral in water 10 μg): 59 ± 11 ng/mL
FSH ([3]; oral in water 30 μg): 1470 ± 190 ng/mL
Serum LH ([3]; oral in water 30 μg): 39 ± 6 ng/mL
FSH ([3]; oral in water 100 μg): 1161 ± 277 ng/mL
Serum LH ([3]; oral in water 100 μg): 26 ± 7 ng/mL
rats ovulated/total rats ([4]; oral dose 500 ug): 9/11
rats ovulated/total rats ([4]; oral dose 1000 ug): 4/11
rats ovulated/total rats ([4]; oral dose 2000 ug): 0/11

Compound: luteinizing hormone releasing hormone (QHWSYGLRPG; ends and bridges not checked; UniProt P01148 24-33, looked up) [LHRH, natural hormone used as agonist in the pituitary cell culture assay]
FSH ([5]; LHRH 0.1 nM alone): 221 ± 18 ng/mL
RLH ([5]; LHRH 0.1 nM alone): 40 ± 7 ng/mL
FSH ([5]; LHRH 0.3 nM alone): 562 ± 48 ng/mL
RLH ([5]; LHRH 0.3 nM alone): 80 ± 1 ng/mL
FSH ([5]; LHRH 1.0 nM alone): 802 ng/mL
RLH ([5]; LHRH 1.0 nM alone): 118 ng/mL
FSH ([5]; LHRH 3.0 nM alone): 646 ± 123 ng/mL
RLH ([5]; LHRH 3.0 nM alone): 150 ± 1 ng/mL
FSH ([5]; LHRH 10.0 nM alone): 602 ± 26 ng/mL
RLH ([5]; LHRH 10.0 nM alone): 141 ± 4 ng/mL
FSH ([5]; LHRH 30.0 nM alone): 557 ± 15 ng/mL
RLH ([5]; LHRH 30.0 nM alone): 152 ± 7 ng/mL

The remaining lines, values ahead:

Wheal Area [1]: 89.5 ± 5.5 mm^2 /10 μg
Compound: CC[C@H](NC(=O)[C@@H](CCCCNC(=O)c1ccccn1)NC(=O)[C@H](CCCNC(N)=O)NC(=O)[C@H](CO)NC(=O)[C@@H](Cc1cccnc1)NC(=O)[C@@H](Cc1ccc(Cl)cc1)NC(=O)[C@@H](Cc1ccc2ccccc2c1)NC(C)=O)C(=O)N[C@@H](CCCCNC(C)C)C(=O)N1CCC[C@H]1C(=O)N[C@H](C)C(N)=O [compound 26382] (Ac-[d2Nal][dPhe(4-Cl)][d3Pal]S[Cit][dK](Picolinoyl)[Abu][Lys(iPr)]P[dA]-NH2)

Wheal Area [1]: 119.6 ± 6.6 mm^2 /10 μg
Compound: CCNC(=O)[C@@H]1CCCN1C(=O)[C@H](CCCCNC(C)C)NC(=O)[C@H](CC(C)C)NC(=O)[C@@H](C[C@H]1CC[C@@H](NC(=O)c2cnccn2)CC1)NC(=O)[C@H](CCCCNC(=O)c1ccccn1)NC(=O)[C@H](CO)NC(=O)[C@@H](Cc1cccnc1)NC(=O)[C@@H](Cc1ccc(Cl)cc1)NC(=O)[C@@H](Cc1ccc2ccccc2c1)NC(C)=O [compound 26383] (Ac-[d2Nal][dPhe(4-Cl)][d3Pal]SK(Picolinoyl)[dAla(cis-4-NHCOPyz-cHex)]L[Lys(iPr)]P-NHEt)
